The test system of series [1] is neuroblastoma cells (ScN2a). Particulars: mouse.
The conditions of series [2]: human, in vivo, cited from earlier work.

Like-named read-outs stand apart in the source and are kept apart here. Some results are limits rather than exact numbers.

These results are taken from patent US20050020582A1 (priority 2001, published 2005).

Consider `CN(C)CCCN1c2ccccc2Sc2ccc(Cl)cc21` [chlorpromazine], for which the “decrease in cell population (cytotoxic effects)” value in series [1] was 50%.
On to `CSc1ccc2c(c1)N(CCC1CCCCN1C)c1ccccc1S2` (stereo not shown) [thioridazine], for which the brain concentration result in series [2] (po) was “more than 80 μM”; in series [2] it was 20 µM.
On to `CCN(CC)CCCC(C)Nc1c2ccc(Cl)cc2nc2ccc(OC)cc12` (stereo not shown) [quinacrine], for which, in series [1], the “concentrations without cytotoxic effects on neuroblastoma cells” value is < 5 µM.
